Laboratory results published in patent publication US4068074A, “Cephalosporin derivatives having at the 3-position of the cephem ring a heterocyclic thiomethyl group with a carboxy or sulfo group and at the 7-position of the cephem ring an α-heterocylic acylaminophenyl-acetamide group” (priority 1974, dated 1978).
In brackets after ≈: the same amount, converted by molar mass. Like-named read-outs stand apart in the source and are kept apart here.

Legend:
Proteus vulgaris 0X 19US = assay: MIC against bacteria (Table I), strain (2); format: cell-based; settings: 0X19US
From the text: (§1) Now, for illustrating the excellent pharmacological effects of the compounds of this invention, the values of MIC (γ/ml.) of the compounds against various bacteria are shown in Table 1, in which the compounds of this invention used are shown by example numbers.
(2) Proteus vulgaris 0X 19US

[1] = tested on: Pseudomonas aeruginosa ATCC 8689; assay: MIC against bacteria (Table I), strain (4); format: cell-based; settings: ATCC8689
From the text: as §1
(4) Pseudomonas aeruginosa ATCC 8689

[2] = tested on: Pseudomonas aeruginosa 99 (Gentamycin resistant); assay: MIC against bacteria (Table I), strain (5); format: cell-based
From the text: as §1
(5) Pseudomonas aeruginosa 99 (Gentamycin resistant)

[3] = tested on: Escherichia coli kauffmann 0-1; assay: MIC against bacteria (Table I), strain (7); format: cell-based; settings: Escherichia coli
From the text: as §1
(7) Escherichia coli kauffmann 0-1

[4] = tested on: Klebsiella pneumoniae ATCC 10031; assay: MIC against bacteria (Table I), strain (8); format: cell-based; settings: Klebsiella pneumoniae, ATCC10031
From the text: as §1
(8) Klebsiella pneumoniae ATCC 10031

Salmonella typhi H901 W = assay: MIC against bacteria (Table I), strain (9); format: cell-based; settings: Salmonella enterica, TYPHI
From the text: as §1
(9) Salmonella typhi H901 W

Salmonella enteritidis = assay: MIC against bacteria (Table I), strain (10); format: cell-based; settings: Salmonella enterica, ENTERITIDIS
From the text: as §1
(10) Salmonella enteritidis

[5] = tested on: Shigella flexneri 2a 1675; assay: MIC against bacteria (Table I), strain (11); format: cell-based; settings: 2A1675; (11) Shigella flexneri 2a 1675; read-out: MIC
From the text: as §1

Shigella sonnei II 37148 = assay: MIC against bacteria (Table I), strain (12); format: cell-based; settings: II37148; (12) Shigella sonnei II 37148; read-out: MIC
From the text: as §1

[6] = tested on: Bacillus subtilis ATCC 6633; assay: MIC against bacteria (Table I), strain (14); format: cell-based; settings: ATCC6633
From the text: as §1
(14) Bacillus subtilis ATCC 6633

[7] = tested on: Staphylococcus aureus 209P; assay: MIC against bacteria (Table I), strain (16); format: cell-based
From the text: as §1
(16) Staphylococcus aureus 209P

[8] = tested on: Staphylococcus Shimanishi; assay: MIC against bacteria (Table I), strain (17); format: cell-based; settings: Staphylococcus
From the text: as §1
(17) Staphylococcus Shimanishi

Staphylococcus Onuma = assay: MIC against bacteria (Table I), strain (18); format: cell-based
From the text: as §1
(18) Staphylococcus Onuma

[9] = tested on: β-lactamase isolated from Pseudomonas aeruginosa 21; assay: Resistance to β-lactamase: amount of unaltered test sample (Table 3); format: biochemical; settings: initial concentration 100γ/ml
From the text: For example, the relation between the amount (γ/ml) of an unaltered test sample at an initial concentration of the sample 100γ/ml against β-lactamase isolated from Pseudomonas aeruginosa 21 at various dilutions of the enzyme were investigated.

[10] = Residual antibacterial activity after incubation with 90% plasma (Table 4); format: in vitro ADME, male Sprague-Dowley rat; settings: 90% rat plasma; for remaining at 0.25 h / remaining at 0.5 h / remaining at 1.5 h: 90% plasma; for remaining at 0.25 h: 15 minute; for remaining at 0.5 h: 30 minute; for remaining at 1.5 h: 90 minute; for Residual activity: 0 minute
Procedure: (§2) The relation between the reaction period of time and the antibacterial activity (residual activity, %) when these compounds are incubated with the plasma and the liver homogenate of a male Sprague-Dowley rat is shown in Table 4. The residual antibacterial activity was measured by a thin-layer cup method according to Bacillus subtilis ATCC 6633.
A*Residual activity (%) when incubated with 90% plasma.

[11] = Residual antibacterial activity after incubation with 10% liver homogenate (Table 4); format: in vitro ADME, male Sprague-Dowley rat; settings: for remaining at 0.25 h / remaining at 0.5 h / remaining at 1.5 h: 10% liver homogenate
Procedure: as §2
B*Residual activity (%) when incubated with 10% liver homogenate.

[12] = format: in vitro ADME
From the text: Still another advantage of the compounds of this invention is that they are not inactivated in the internal organs of the body. For example, when the compounds of this invention and cephalotin are each homogenized with internal organs, the compounds of this invention are not decomposed while cephalotin is decomposed.

Proteus vulgaris OXK US = assay: MIC against bacteria (Table I), strain (1); format: cell-based; settings: (1) Proteus vulgaris OXK US; read-out: MIC
From the text: as §1
(1) Proteus vulgaris OXK US

[13] = tested on: Proteus mirabilis IXM OM-19; assay: MIC against bacteria (Table I), strain (3); format: cell-based; settings: IXMOM19; (3) Proteus mirabilis IXM OM-19; read-out: MIC
From the text: as §1
(3) Proteus mirabilis IXM OM-19

[14] = tested on: Psuedomonas ovalis IMA 1002; assay: MIC against bacteria (Table I), strain (6); format: cell-based; settings: (6) Psuedomonas ovalis IMA 1002; read-out: MIC
From the text: as §1
(6) Psuedomonas ovalis IMA 1002

[15] = tested on: Bacillus megatherium 10778; assay: MIC against bacteria (Table I), strain (13); format: cell-based; settings: (13) Bacillus megatherium 10778; read-out: MIC
From the text: as §1

[16] = tested on: Micrococcus flavus ATCC 10240; assay: MIC against bacteria (Table I), strain (15); format: cell-based; settings: Micrococcus flavus, ATCC10240
From the text: as §1
(15) Micrococcus flavus ATCC 10240

[17] = Solubility of salts in water (Table 2); format: physicochemical; settings: disodium salt, water, showing pH 7.4; read-out: Solubility: disodium salt dissolved in water in an amount of
From the text: An advantage of the compounds of this invention is that the salts, for example, sodium salts of these compounds are readily soluble in water at pH of living bodies, which makes them suitable for injections at high concentration. The solubility of these compounds are illustrated in Table 2 together with a control example.

Structure (SMILES): CC(=O)OCC1=C(C(=O)O)N2C(=O)[C@@H](NC(=O)Cc3cccs3)[C@H]2SC1 [Cephalotin, reference compound]
- MIC (Proteus vulgaris 0X 19US; Proteus vulgaris): 12.5 µg/mL (≈ 31.5 µM)
- MIC ([1]; Pseudomonas aeruginosa): > 100 µg/mL
- MIC ([2]; Pseudomonas aeruginosa): > 100 µg/mL
- MIC [3]: 3.13 µg/mL (≈ 7.9 µM)
- MIC [4]: 0.78 µg/mL (≈ 1.97 µM)
- MIC (Salmonella typhi H901 W): 1.56 µg/mL (≈ 3.93 µM)
- MIC (Salmonella enteritidis): 0.39 µg/mL (≈ 0.984 µM)
- MIC [5]: 6.25 µg/mL (≈ 15.8 µM)
- MIC (Shigella sonnei II 37148): 6.25 µg/mL (≈ 15.8 µM)
- MIC ([6]; Bacillus subtilis): < 0.09 µg/mL
- MIC ([7]; Staphylococcus aureus, 209P): 0.19 µg/mL (≈ 0.479 µM)
- MIC [8]: 0.39 µg/mL (≈ 0.984 µM)
- MIC (Staphylococcus Onuma; Staphylococcus): 0.39 µg/mL (≈ 0.984 µM)
- Amount of unaltered test sample ([9]; β-lactamase dilution ×2): 0 µg/mL
- Amount of unaltered test sample ([9]; β-lactamase dilution ×4): 0 µg/mL
- Amount of unaltered test sample ([9]; β-lactamase dilution ×8): 0 µg/mL
- Amount of unaltered test sample ([9]; β-lactamase dilution ×16): 0 µg/mL
- Amount of unaltered test sample ([9]; β-lactamase dilution ×32): 2.6 µg/mL
- Amount of unaltered test sample ([9]; β-lactamase dilution ×64): 11.8 µg/mL
- Amount of unaltered test sample ([9]; β-lactamase dilution ×128): 46.8 µg/mL
- Amount of unaltered test sample ([9]; β-lactamase dilution ×256): 81.6 µg/mL
- Amount of unaltered test sample ([9]; β-lactamase dilution ×512): 100 µg/mL
- Amount of unaltered test sample ([9]; β-lactamase dilution ×1024): 100 µg/mL
- remaining at 0.25 h [10]: 87%
- remaining at 0.5 h [10]: 66%
- remaining at 1.5 h [10]: 36%
- Residual activity [10]: 100%
- Residual activity ([11]; rat, 0 min): 100%
- remaining at 0.25 h ([11]; rat): 17.2%
- remaining at 0.5 h ([11]; rat): 12.2%
- remaining at 1.5 h ([11]; rat): 12.6%
- Decomposition when homogenized with internal organs [12]: decomposed

Structure (SMILES): O=C(O)CSc1nnc(SCC2=C(C(=O)O)N3C(=O)[C@@H](NC(=O)[C@H](NC(=O)c4cnccc4O)c4ccccc4)[C@H]3SC2)s1 [Example 4, 7-[D-α-(4-hydroxynicotinoylamido)-α-phenylacetamido]-3-(5-carboxymethylthio-1,3,4-thiadiazol-2-yl)thiomethyl-Δ^3-cephem-4-carboxylic acid]
- MIC (Proteus vulgaris OXK US): < 0.09 µg/mL
- MIC (Proteus vulgaris 0X 19US; (2) Proteus vulgaris 0X 19US, read-out: MIC): 0.19 µg/mL (≈ 0.282 µM)
- MIC [13]: 0.39 µg/mL (≈ 0.578 µM)
- MIC ([1]; (4) Pseudomonas aeruginosa ATCC 8689, read-out: MIC): 12.5 µg/mL (≈ 18.5 µM)
- MIC ([2]; (5) Pseudomonas aeruginosa 99 (Gentamycin resistant), read-out: MIC): 6.25 µg/mL (≈ 9.26 µM)
- MIC [14]: 6.25 µg/mL (≈ 9.26 µM)
- MIC [3]: 3.13 µg/mL (≈ 4.64 µM)
- MIC [4]: 3.13 µg/mL (≈ 4.64 µM)
- MIC (Salmonella typhi H901 W): 1.56 µg/mL (≈ 2.31 µM)
- MIC (Salmonella enteritidis): 0.39 µg/mL (≈ 0.578 µM)
- MIC [5]: 0.78 µg/mL (≈ 1.16 µM)
- MIC (Shigella sonnei II 37148): 3.13 µg/mL (≈ 4.64 µM)
- MIC [15]: 0.19 µg/mL (≈ 0.282 µM)
- MIC ([6]; (14) Bacillus subtilis ATCC 6633, read-out: MIC): 0.19 µg/mL (≈ 0.282 µM)
- MIC [16]: 3.13 µg/mL (≈ 4.64 µM)
- MIC ([7]; (16) Staphylococcus aureus 209P, read-out: MIC): 0.78 µg/mL (≈ 1.16 µM)
- MIC [8]: 3.13 µg/mL (≈ 4.64 µM)
- MIC (Staphylococcus Onuma; (18) Staphylococcus Onuma, read-out: MIC): 6.25 µg/mL (≈ 9.26 µM)
- solubility [17]: > 200 mg/mL
- Amount of unaltered test sample ([9]; β-lactamase dilution ×2): 0 µg/mL
- Amount of unaltered test sample ([9]; β-lactamase dilution ×4): 29.6 µg/mL
- Amount of unaltered test sample ([9]; β-lactamase dilution ×8): 61.0 µg/mL
- Amount of unaltered test sample ([9]; β-lactamase dilution ×16): 100 µg/mL
- Amount of unaltered test sample ([9]; β-lactamase dilution ×32): 100 µg/mL
- Amount of unaltered test sample ([9]; β-lactamase dilution ×64): 100 µg/mL
- Amount of unaltered test sample ([9]; β-lactamase dilution ×128): 100 µg/mL
- Amount of unaltered test sample ([9]; β-lactamase dilution ×256): 100 µg/mL
- Amount of unaltered test sample ([9]; β-lactamase dilution ×512): 100 µg/mL
- Amount of unaltered test sample ([9]; β-lactamase dilution ×1024): 100 µg/mL
- remaining at 0.25 h [10]: 97%
- remaining at 0.5 h [10]: 93.9%
- remaining at 1.5 h [10]: 103%
- Residual activity [10]: 100%
- remaining at 0.25 h ([11]; 10% rat liver homogenate, 15 minute, read-out: Residual activity): 93.5%
- remaining at 0.5 h ([11]; 10% rat liver homogenate, 30 minute, read-out: Residual activity): 91.3%
- remaining at 1.5 h ([11]; 10% rat liver homogenate, 90 minute, read-out: Residual activity): 102%
- Residual activity ([11]; 10% rat liver homogenate, 0 minute): 100%
